Read-outs that look alike come from different tables or passages of the source.
What was measured:
human STING WT (R232) = molecular target: T1, human STING WT (R232) (Homo sapiens, UniProt Q86WV6, H232R); test: Human STING HTRF binding assay (competitive, Cisbio 64BDSTGPEG)
T1 construct: purchased Cisbio 64BDSTGPEG
How it was run: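 Competitive HTRF: 6His-tagged human STING WT R232 binding domain (residues 138-379) with anti-6His Cryptate antibody and d2-labeled STING ligand, 180 min at room temperature, 1% DMSO, 8 concentrations from 10 μM or 1 μM top in ~1:5 steps. HTRF ratios were calibrated to a cGAMP standard curve and IC50 obtained by 4-parameter logistic fit.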

[1] = system: STING inhibition in human whole blood (IFNα2α production); test: Human whole blood assay (HWBA): cGAMP-stimulated IFNα2α production; format: cell-based
How it was run: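 Na-citrate human whole blood from ≥3 healthy donors, preincubated 60 min at room temperature with compound (8 concentrations, top 10 μM, ~1:5 steps, 0.1% DMSO), then stimulated with cGAMP and incubated 22 h at 37 °C. Plasma IFNα2α measured by MSD immunoassay; % control versus stimulated/unstimulated wells, IC50 by 4-parameter logistic fit.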

T1 sequence (Q86WV6 138-379 H232R): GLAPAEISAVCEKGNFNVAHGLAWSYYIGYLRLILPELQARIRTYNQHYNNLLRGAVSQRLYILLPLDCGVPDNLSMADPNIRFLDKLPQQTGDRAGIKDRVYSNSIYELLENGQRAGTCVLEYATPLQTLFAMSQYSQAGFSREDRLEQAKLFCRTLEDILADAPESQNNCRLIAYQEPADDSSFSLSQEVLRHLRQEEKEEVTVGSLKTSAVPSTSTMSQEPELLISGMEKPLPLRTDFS

SMILES	IC50 (human STING WT (R232)) [nM]	IC50 ([1]; Homo sapiens) [nM]	IC50 [1] [nM]
C=CCO[C@@H](Cn1cc2c(-c3nn(-c4cc5cn(C)nc5nc4C)c(C)c3C(C)C)cccc2n1)c1ccccc1 [Example 79, 4-(1-{2,6-dimethyl-2H-pyrazolo[3,4-b]pyridin-5-yl}-5-methyl-4-(propan-2-yl)-1H-pyrazol-3-yl)-2-[(2R)-2-phenyl-2-(prop-2-en-1-yloxy)ethyl]-2H-indazole]	20.1	580	
Cc1c(C(C)C)c(-c2cccc3nn(C[C@H](O)c4ccccc4)cc23)nn1-c1cc2cn(C)nc2nc1C1(C)CC1 [Example 80, (1R)-2-(4-{5-methyl-1-[2-methyl-6-(1-methylcyclopropyl)-2H-pyrazolo[3,4-b]pyridin-5-yl]-4-(propan-2-yl)-1H-pyrazol-3-yl}-2H-indazol-2-yl)-1-phenylethan-1-ol]	17.5	580	
CCCO[C@@H](Cn1cc2c(-c3nn(-c4cc5cn(C)nc5nc4C)c(C)c3C(C)C)cccc2n1)c1ccccc1 [Example 81, 4-(1-{2,6-dimethyl-2H-pyrazolo[3,4-b]pyridin-5-yl}-5-methyl-4-(propan-2-yl)-1H-pyrazol-3-yl)-2-[(2R)-2-phenyl-2-propoxyethyl]-2H-indazole]	31.1	610	
Cc1nc2nn(C)cc2cc1-n1nc(-c2cccc3nn(CC(O)C4CCCCC4)cc23)c(C(C)C)c1C (centres unmarked) [Example 83, 1-cyclohexyl-2-[4-(1-{2,6-dimethyl-2H-pyrazolo[3,4-b]pyridin-5-yl}-5-methyl-4-(propan-2-yl)-1H-pyrazol-3-yl)-2H-indazol-2-yl]ethan-1-ol]	23.7	630	
CNc1nc2nn(C)cc2cc1-n1nc(-c2cccc3nn(C[C@H](O)c4ccccc4)cc23)c(C(C)C)c1C [Example 84, (1R)-2-(4-{5-methyl-1-[2-methyl-6-(methylamino)-2H-pyrazolo[3,4-b]pyridin-5-yl]-4-(propan-2-yl)-1H-pyrazol-3-yl}-2H-indazol-2-yl)-1-phenylethan-1-ol]	21	640	
Cc1c(C(C)C)c(-c2cccc3nn(C[C@H](O)c4ccccc4)cc23)nn1-c1cc2cn(C)nc2nc1N(C)C [Example 87, (1R)-2-(4-{1-[6-(dimethylamino)-2-methyl-2H-pyrazolo[3,4-b]pyridin-5-yl]-5-methyl-4-(propan-2-yl)-1H-pyrazol-3-yl}-2H-indazol-2-yl)-1-phenylethan-1-ol]	20.2	850	
Cc1nc2nn(C)cc2cc1-n1nc(-c2cccc3nn(CC(O)c4ccc(Br)cc4)cc23)c(C(C)C)c1C (centres unmarked) [Example 88, 1-(4-Bromophenyl)-2-[4-(1-{2,6-dimethyl-2H-pyrazolo[3,4-b]pyridin-5-yl}-5-methyl-4-(propan-2-yl)-1H-pyrazol-3-yl)-2H-indazol-2-yl]ethan-1-ol]	97.9	930	
Cn1cc2cc(-c3nc(-c4cccc5nn(C[C@H](O)c6ccc(OCC#N)cc6)cc45)c(C4CC4)n3C)c(C3CC3)nc2n1 [Example 90, 2-{4-[(1R)-2-[4-(5-cyclopropyl-2-{6-cyclopropyl-2-methyl-2H-pyrazolo[3,4-b]pyridin-5-yl}-1-methyl-1H-imidazol-4-yl)-2H-indazol-2-yl]-1-hydroxyethyl]phenoxy} acetonitrile]	19.9	1100	
CCc1c(-c2cccc3nn(C[C@H](O)c4ccccc4)cc23)nn(-c2cc3cn(C)nc3nc2C)c1CC [Example 93, (1R)-2-[4-(1-{2,6-dimethyl-2H-pyrazolo[3,4-b]pyridin-5-yl}-4,5-diethyl-1H-pyrazol-3-yl)-2H-indazol-2-yl]-1-phenylethan-1-ol]	17.4	2400	

Second part, the compound after the results:

IC50 (human STING WT (R232)) [nM]	IC50 ([1]; Homo sapiens) [nM]	IC50 [1] [nM]	SMILES
5.1	58		[2H][C@](O)(Cn1cc2c(-c3nn(-c4cc5cn(C)nc5nc4C)c(C)c3C(C)C)cccc2n1)c1ccccc1 [Example 3, (1R)-2-[4-(1-{2,6-dimethyl-2H-pyrazolo[3,4-b]pyridin-5-yl}-5-methyl-4-(propan-2-yl)-1H-pyrazol-3-yl)-2H-indazol-2-yl]-1-phenyl(1-^2H)ethan-1-ol]
16.9	450		Cc1nc2nn(C)cc2cc1-n1nc(-c2cccc3nn(C[C@H](OCCC(C)(C)O)c4ccccc4)cc23)c(C(C)C)c1C [Example 74, 4-[(1R)-2-[4-(1-{2,6-dimethyl-2H-pyrazolo[3,4-b]pyridin-5-yl}-5-methyl-4-(propan-2-yl)-1H-pyrazol-3-yl)-2H-indazol-2-yl]-1-phenylethoxy]-2-methylbutan-2-ol]
9.8		450	COC(C)c1nc2nn(C)cc2cc1-n1nc(-c2cccc3nn(C[C@H](O)c4ccccc4)cc23)c(C(C)C)c1C (some centres unmarked) [Example 75]
17.4	520		Cc1c(C(C)C)c(-c2cccc3nn(C[C@H](O)c4ccccc4)cc23)nn1-c1ccn2c(C(F)F)nnc2c1C1CC1 [Example 76]
16.7	560		Cc1nc2nn(C)cc2cc1-n1nc(-c2cccc3nn(C[C@H](OCCF)c4ccccc4)cc23)c(C(C)C)c1C [Example 78, 4-(1-{2,6-dimethyl-2H-pyrazolo[3,4-b]pyridin-5-yl}-5-methyl-4-(propan-2-yl)-1H-pyrazol-3-yl)-2-[(2R)-2-(2-fluoroethoxy)-2-phenylethyl]-2H-indazole]
3.2	610		Cc1cc([C@@H](O)Cn2cc3c(-c4nn(-c5cc6cn(C)nc6nc5C)c(C)c4C(C)C)cccc3n2)ccn1 [Example 82, (1R)-2-[4-(1-{2,6-dimethyl-2H-pyrazolo[3,4-b]pyridin-5-yl}-5-methyl-4-(propan-2-yl)-1H-pyrazol-3-yl)-2H-indazol-2-yl]-1-(2-methylpyridin-4-yl)ethan-1-ol]
15.9	660		COCCO[C@@H](Cn1cc2c(-c3nn(-c4cc5cn(C)nc5nc4C)c(C)c3C(C)C)cccc2n1)c1ccccc1 [Example 85, 4-(1-{2,6-dimethyl-2H-pyrazolo[3,4-b]pyridin-5-yl}-5-methyl-4-(propan-2-yl)-1H-pyrazol-3-yl)-2-[(2R)-2-(2-methoxyethoxy)-2-phenylethyl]-2H-indazole]
6.9	690		Cc1c(-n2nc(-c3cccc4nn(C[C@H](O)c5ccccc5)cc34)c(C(C)C)c2C)ccn2c(C)nnc12 [Example 86, (1R)-2-[4-(1-{3,8-dimethyl-[1,2,4]triazolo[4,3-a]pyridin-7-yl}-5-methyl-4-(propan-2-yl)-1H-pyrazol-3-yl)-2H-indazol-2-yl]-1-phenylethan-1-ol]
17.2	1000		Cc1c(C(C)C)c(-c2cccc3nn(C[C@H](O)c4ccccc4)cc23)nn1-c1cc2cn(C)nc2nc1C(C)(C)O [Example 89, 2-[5-(3-{2-[(2R)-2-hydroxy-2-phenylethyl]-2H-indazol-4-yl}-5-methyl-4-(propan-2-yl)-1H-pyrazol-1-yl)-2-methyl-2H-pyrazolo[3,4-b]pyridin-6-yl]propan-2-ol]
7.6	1600		Cn1cc([C@@H](O)Cn2cc3c(-c4nc(-c5cc6cn(C)nc6nc5C5CC5)n(C)c4C4CC4)cccc3n2)cn1 [Example 91, (1R)-2-[4-(5-cyclopropyl-2-{6-cyclopropyl-2-methyl-2H-pyrazolo[3,4-b]pyridin-5-yl}-1-methyl-1H-imidazol-4-yl)-2H-indazol-2-yl]-1-(1-methyl-1H-pyrazol-4-yl)ethan-1-ol]
4.3	2000		Cc1nc2nn(C)cc2cc1-n1nc(-c2cccc3nn(C[C@H](O)c4ccccc4)cc23)c(C2(C)CC2)c1C [Example 92, (1R)-2-[4-(1-{2,6-Dimethyl-2H-pyrazolo[3,4-b]pyridin-5-yl}-5-methyl-4-(1-methylcyclopropyl)-1H-pyrazol-3-yl)-2H-indazol-2-yl]-1-phenylethan-1-ol]
17.1	2400		Cc1c(-n2nc(-c3cccc4nn(C[C@H](O)c5ccccc5)cc34)c(C(C)C)c2C)ccn2c(C)cnc12 [Example 94, (1R)-2-[4-(1-{3,8-dimethylimidazo[1,2-a]pyridin-7-yl}-5-methyl-4-(propan-2-yl)-1H-pyrazol-3-yl)-2H-indazol-2-yl]-1-phenylethan-1-ol]
11.4	2500		Cc1nc2nn(C)cc2cc1-n1nc(-c2cccc3nn(C[C@H](O)c4ccccc4)cc23)c(C(C)CO)c1C (stereo partly drawn) [Example 95, 2-(1-{2,6-dimethyl-2H-pyrazolo[3,4-b]pyridin-5-yl}-3-{2-[(2R)-2-hydroxy-2-phenylethyl]-2H-indazol-4-yl}-5-methyl-1H-pyrazol-4-yl)propan-1-ol]
